Several values for one entry are separate records, joined by “and”; a condition that tells them apart may be missing. Equal entries are not always repeated. Where two headings read alike, the source gives them in different places.
Target: T1, Human Rheumatoid Synovial collagenase (Homo sapiens, UniProt P03956)
T1 construct: from tissue; host or cells: rheumatoid synovium (tissue or synovial cell culture not distinguished)
T1 sequence (P03956 100-469): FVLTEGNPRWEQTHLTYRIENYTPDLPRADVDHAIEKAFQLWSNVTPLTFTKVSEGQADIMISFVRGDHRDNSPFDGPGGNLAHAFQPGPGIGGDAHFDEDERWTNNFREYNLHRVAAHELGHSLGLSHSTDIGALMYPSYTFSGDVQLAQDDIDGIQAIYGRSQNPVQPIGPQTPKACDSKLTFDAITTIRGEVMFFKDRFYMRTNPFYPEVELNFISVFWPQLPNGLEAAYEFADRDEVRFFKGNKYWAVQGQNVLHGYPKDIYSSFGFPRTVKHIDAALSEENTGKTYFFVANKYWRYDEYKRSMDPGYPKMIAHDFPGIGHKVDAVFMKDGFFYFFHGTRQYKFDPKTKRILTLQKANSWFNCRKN
Assay: inhibition of collagenase (acetyl 14C collagen digestion, Cawston and Barrett)
Assay type: biochemical
Method: This was determined following the procedure of Cawston and Barrett, Anal. Biochem., 99, 340-345 (1979) whereby the 1 mM of the inhibitor being tested or dilutions thereof are incubated at 37° C. for 16 hours with native collagen and collagenase (buffered with Tris HCl--CaCl2; pH 7.6). The collagen is acetyl ^14 C collagen. The samples are centrifuged to sediment undigested collagen and an aliquot of the radiactive supernatant removed for assay on a scintillation counter as a measure of hydrolysis. The collagenase activity in the presence of 1 mM inhibitor, or a dilution thereof, is compared to activity in a control devoid of inhibitor and the results reported as that inhibitor concentration effecting 50% inhibition of the collagenase.

[1] = Table 2, 37° C., 16 hours, native acetyl 14C collagen, pH 7.6, read-out: IC50 (μM) Human Rheumatoid Synovial collagenase
[2] = Table 3, all compounds S stereochemistry at c, 37° C., 16 hours, pH 7.6, read-out: IC50 against human rheumatoid sinovial collagenase

Row | Compound | IC50 [1] [µM] | IC50 [2] [µM] | IC50 (Table 3 footnote 4, individual determinations, read-out: IC50, individual results (footnote 4: mean of two results))
1 | CNC(=O)[C@H](Cc1ccc(OC)cc1)NC(=O)C(CC(C)C)C(C)S (single isomer, unassigned) [Example 1 Isomer A1, N-[2-(1-Mercaptoethyl)-4-methylpentanoyl]-O-methyl-L-tyrosine N-Methylamide] | 19 |  | 
2 | CNC(=O)[C@H](Cc1ccc(OC)cc1)NC(=O)C(CC(C)C)C(C)S (single isomer, unassigned) [Example 1 Isomer A2, N-[2-(1-Mercaptoethyl)-4-methylpentanoyl]-O-methyl-L-tyrosine N-Methylamide] | 13 |  | 
3 | CNC(=O)[C@H](Cc1ccc(OC)cc1)NC(=O)C(CC(C)C)C(S)c1ccccc1 (single isomer, unassigned) [Example 2 Isomer B1, N-[2-(1-S-Mercaptobenzyl)-4-methylpentanoyl]-O-methyl-L-tyrosine-N-methylamide] | 3.9 |  | 
4 | CNC(=O)[C@H](Cc1ccc(OC)cc1)NC(=O)C(CC(C)C)C(S)c1ccccc1 (single isomer, unassigned) [Example 2 Isomer B2, N-[2-(1-S-Mercaptobenzyl)-4-methylpentanoyl]-O-methyl-L-tyrosine-N-methylamide] | 12 |  | 
5 | CNC(=O)[C@H](Cc1ccc(OC)cc1)NC(=O)C(CC(C)C)C(S)C(C)C (single isomer, unassigned) [Example 3 Isomer A, N-(2-(1-Mercapto-2-methylpropyl)-4-methylpentanoyl)-O-methyl-L-tyrosine N-Methyl amide] | 2 |  | 
6 | CNC(=O)[C@H](Cc1ccc(OC)cc1)NC(=O)C(CC(C)C)C(S)C(C)C (single isomer, unassigned) [Example 3 Isomer B, N-(2-(1-Mercapto-2-methylpropyl)-4-methylpentanoyl)-O-methyl-L-tyrosine N-Methyl amide] | 5 |  | 
7 | CCCCCCC(C(=O)N[C@@H](Cc1ccc(OC)cc1)C(=O)NC)C(C)S (single isomer, unassigned) [Example 4 Isomer A, N-[2-(1-mercaptoethyl)octanoyl]-O-methyl-L-tyrosine N-methylamide] | 5 |  | 
8 | CCCCCCC(C(=O)N[C@@H](Cc1ccc(OC)cc1)C(=O)NC)C(C)S (single isomer, unassigned) [Example 4 Isomer B, N-[2-(1-mercaptoethyl)octanoyl]-O-methyl-L-tyrosine N-methylamide] | 140 |  | 
9 | CNC(=O)[C@@H](NC(=O)C(CC(C)C)C(C)S)[C@@H](C)OCc1ccccc1 (single isomer, unassigned) [Example 6 Isomer B, N-[2-(1-Mercaptoethyl)-4-methylpentanoyl]-O-benzyl-L-threonine N-Methylamide] | 4.9 |  | 
10 | CCCCNC(=O)[C@H](C)NC(=O)C(CC(C)C)C(C)S (single isomer, unassigned) [Example 7 Isomer A, N-[2-(1-S-Mercaptoethyl)-4-methyl-pentanoyl]-L-alanine N-butylamide] | 4.9 |  | 
11 | CCCCNC(=O)[C@H](C)NC(=O)C(CC(C)C)C(C)S (single isomer, unassigned) [Example 7 Isomer B, N-[2-(1-S-Mercaptoethyl)-4-methyl-pentanoyl]-L-alanine N-butylamide] | 2 |  | 
12 | CNC(=O)[C@H](Cc1ccc(OC)cc1)NC(=O)C(CS)CC(C)C (some centres unmarked) [reference compound] |  | 3.6 | 
13 | CCCCNC(=O)[C@H](C)NC(=O)C(CS)CC(C)C (some centres unmarked) [reference compound] |  | 37 | 25 µM and 44 µM
14 | CNC(=O)[C@@H](NC(=O)C(CS)CC(C)C)C(C)OCc1ccccc1 (some centres unmarked) [reference compound] |  | 4.8 | 

The next lines start with the values.

Row | IC50 [1] [µM] | IC50 [2] [µM] | IC50 (Table 3 footnote 4, individual determinations, read-out: IC50, individual results (footnote 4: mean of two results)) | Compound
15 | 0.22 | 0.22 |  | CNC(=O)[C@H](Cc1ccc(OC)cc1)NC(=O)C(CC(C)C)C(C)S (single isomer, unassigned) [Example 1 Isomer B1, N-[2-(1-Mercaptoethyl)-4-methylpentanoyl]-O-methyl-L-tyrosine N-Methylamide]
16 | 1.5 |  |  | CNC(=O)[C@H](Cc1ccc(OC)cc1)NC(=O)C(CC(C)C)C(C)S (single isomer, unassigned) [Example 1 Isomer B2, N-[2-(1-Mercaptoethyl)-4-methylpentanoyl]-O-methyl-L-tyrosine N-Methylamide]
17 | 0.27 |  |  | CNC(=O)[C@H](Cc1ccc(OC)cc1)NC(=O)C(CC(C)C)C(S)c1ccccc1 (single isomer, unassigned) [Example 2 Isomer A1, N-[2-(1-S-Mercaptobenzyl)-4-methylpentanoyl]-O-methyl-L-tyrosine-N-methylamide]
18 | 1.71 |  |  | CNC(=O)[C@H](Cc1ccc(OC)cc1)NC(=O)C(CC(C)C)C(S)c1ccccc1 (single isomer, unassigned) [Example 2 Isomer A2, N-[2-(1-S-Mercaptobenzyl)-4-methylpentanoyl]-O-methyl-L-tyrosine-N-methylamide]
19 | 0.2 |  |  | CCCCC(C(=O)N[C@@H](Cc1ccc(OC)cc1)C(=O)NC)C(C)S (single isomer, unassigned) [Example 5 Isomer A, N-[2-(1-Mercaptoethyl)hexanoyl]-O-methyl-L-tyrosine N-methyl amide]
20 | 1 |  |  | CCCCC(C(=O)N[C@@H](Cc1ccc(OC)cc1)C(=O)NC)C(C)S (single isomer, unassigned) [Example 5 Isomer B, N-[2-(1-Mercaptoethyl)hexanoyl]-O-methyl-L-tyrosine N-methyl amide]
21 | 0.45 | 0.45 |  | CNC(=O)[C@@H](NC(=O)C(CC(C)C)C(C)S)[C@@H](C)OCc1ccccc1 (single isomer, unassigned) [Example 6 Isomer A, N-[2-(1-Mercaptoethyl)-4-methylpentanoyl]-O-benzyl-L-threonine N-Methylamide]
22 | 1.2 | 1.2 |  | CCCCNC(=O)[C@H](C)NC(=O)C(CC(C)C)C(C)S (single isomer, unassigned) [Example 7 Isomer C, N-[2-(1-S-Mercaptoethyl)-4-methyl-pentanoyl]-L-alanine N-butylamide]
